According to US20210046002A1, “AMELIORATION OF AUTOIMMUNE UVEITIS THROUGH BLOCKADE OF CSF1R” (Massachusetts Eye and Ear Infirmary, priority 2018, published 2021):
Entries after “also recorded” stand apart in the source; their conditions may differ.

Tests used:
[1] = tested on: EAU; test: EAU in Cx3cr1CreER x B6-iDTR mice given tamoxifen alone; type: in vivo; conditions: day 21; for clinical EAU score: tamoxifen alone, systemically via i.p. injection
[2] = tested on: circulating systemic immune cells; conditions: previous studies [31, 32]; cited from earlier work
[3] = tested on: adherent retinal leukocytes; test: Lectin labeling of adherent retinal leukocytes; type: in vivo, mice; conditions: EAU day 10
Experimental: The retinal vasculature and adherent leukocytes were imaged by perfusion labeling with fluorescein-isothiocyanate (FITC)-conjugated concanavalin A lectin (conA; Vector Laboratories, Burlingame, Calif.), as described previously with modifications. Briefly, after deep anesthesia, the chest cavity was opened and a 27-gauge cannula was introduced into the left ventricle. The mice were perfused through the left ventricle first using 5 ml of PBS, followed by fixation with 1% paraformaldehyde (5 ml), FITC-conjugated conA (20 μg/ml in PBS, 5 mL), and 5 ml of PBS. The eyes were then fixed in 4% PFA for 15 mins and the retinas were flatmounted. The total number of conA stained adherent leukocytes in the major retinal vessels (venules, arterioles, and collecting vessels) were counted under the direct observation with an epifluorescent microscopy (Axio Observer Z1; Carl Zeiss, Bayern, Germany).

[4] = tested on: IRBP-p; test: Delayed hypersensitivity (ear swelling) against IRBP-p; type: in vivo, C57BL/6 mice; conditions: IRBP-immunized animals, day 21
Experimental: Ag-specific delayed hypersensitivity (DH) was measure as previously described. On day 19 after immunization, mice were injected intradermally with 10 μg/10 μl of IRBP-p suspended in PBS into the pinna of one ear. Ear swelling was measured after 24 and 48 h using a micrometer (Mitutoyo, Tokyo, Japan). DH was measured as the difference in ear thickness before and after challenge. Results were expressed as: specific ear swelling=(24-h measurement−0-h measurement) for test ear−(24-h measurement−0-h measurement) for control ear.

[5] = Behavior and health observation on supplemented diet; type: in vivo, mice; conditions: chow containing 1200 p.p.m
Experimental: Microglia depletion was performed using Cx3cr1^CreER×B6-iDTR (TG) mice or chow containing a small molecule CSFR1 inhibitor (Plexxikon Inc, Berkely, Calif., USA). To generate TG mice, Cx3cr1^CreER mice, which express Cre-ER fusion protein from endogenous CX3CR1 promoter enhance elements, were crossed with B6-iDTR mice, which contain a flox-STOP-flox diphtheria toxin receptor (DTR) in the ROSA26 locus. In this TG mice system, the Cre recombinase activation under the control of the Cx3cr1 promoter can be induced by tamoxifen, which leads to the surface expression of DTR on CX3CR1-expressing cells. The activation of Cre recombinase was induced by 5 consecutive days of tamoxifen administration via eye drops (10 μl/drop of 5 mg/ml in corn oil) three times a day at 6 weeks old. Then diphtheria toxin (DTX) (Sigma-Aldrich) was administered into the anterior chamber (a.c.) (25 ng in 1 μl of saline) to deplete CX3CR1-expressing. The control mice were given saline (a.c.). For microglia depletion using a small molecule CSFR1 inhibitor, mice were fed the control chow (AIN-76) or the chow containing 1200 p.p.m of the CSF1R inhibitor PLX 5622 one week prior to RD creation.

[6] = tested on: ICAM-1; test: Western blot of retinal ICAM-1; type: in vivo, mice; conditions: EAU day 10; P<0.01
Experimental: (§1) Whole retinas were homogenized with a hand homogenizer and briefly sonicated in M-PER® Mammalian Protein Extract Reagent containing Halt Phosphatase Inhibitor Cocktail (both Thermo Scientific), and then ultracentifuged for 15 min at 17,000 g to collect soluble proteins as supernatants. 20 μg of the samples were electrophoresed through 4-15% polyacrylamide gels (Bio-Rad, Hercules, Calif., USA), and transferred onto PVDF membranes. After blocking with 5% nonfat dried milk, the membranes were incubated overnight with a primary antibody at 4° C. The membranes were then incubated for 1 hour at room temperature with a HRP-labeled secondary antibody. The following antibodies were used: rabbit anti-ICAM1 (179707, abcam), rabbit anti-VCAM1 (134047, abcam), and rabbit anti-β-actin (4970; Cell Signaling Technology). Immunoreactive bands were visualized by ECL. The images were taken by ChemiDoc MP (Bio-Rad) and analyzed using Image Lab 4.6 (Bio-Rad).

[7] = tested on: LN cells and SP cells; test: Flow cytometric analysis of lymph nodes and spleens; type: in vivo, mice
Text: Cervical, axillary, and inguinal lymph nodes (LNs) were harvested from naive mice and EAU mice fed with a small molecule CSFR1 inhibitor or control diet. Single cell suspensions (1×10^6 cells/sample) were blocked with anti-mouse CD16/32 mAb (eBioscience, San Diego, Calif.) and stained with cell surface antibodies. Dead cells were stained with LIVE/DEAD™ fixable dead cell stain kit (blue or violet) (ThermoFisher). The following anti-mouse antibodies were used for staining: CD4-FITC (clone: GK1.5), CD25-PE (PC61.5), Foxp3-PE-Cy7 (FJK-6s), CD11c-FITC (N418), CD11b-PE (M1/70), CD45-APC (30-F11), IFN-γ-PE (XMG1.2), and IL-17A-APC (eBio17B7) (All purchased from eBioscience). CD3-Pacific blue (17A2) was purchase from BioLegend (San Diego, Calif.). For CD45/CD11b/CD11c detection, the cells were subjected for analysis without fixation. For regulatory T cell (CD3/CD4/CD25/Foxp3) staining, after staining with the cell surface markers, the cells were fixed and permeabilized with the Foxp3 staining buffer kit (eBioscience) and stained with Foxp3-PE-Cy7. For Th1 and Th17 detection (CD3/CD4/IFN-γ/IL-17), single cell suspensions were stimulated for 4 hours with 50 ng/mL phorbal myristate acetate (PMA) and 500 ng/ml ionomysin in culture media (10% FBS, RPMI1640, penicillin, streptomycin, β-mercaptoethanol) in the presence of GolgiPlug™ (BD Biosciences). The cells were stained with CD3-PB, CD4-FITC, and Live/Dead blue then fixed and permeabilized using an intracellular fixation and permeabilization buffer set (eBioscience). The cells were next stained with IFN-γ-PE and IL-17-APC. Flow cytometric data were acquired on a LSR II (BD Biosciences). Acquired data was analyzed using FlowJo 10.1 ( ).

[8] = tested on: lymph node and spleen cells; test: Lymphocyte proliferation assay (modified MTT) of lymph node and spleen cells; type: cell-based, C57BL/6 mice; conditions: IRBP-immunized animals, lymph nodes and spleens, day 14 and 21
Experimental: The draining LN and spleens were collected and the cells were suspended at 2×10^5 per 200 μL medium in 96-well flat-bottom plates. Triplicated cells were cultured in the presence of 10 μg/mL IRBP-p, 1 μg/mL Concanavalin A (Con A; Sigma-Aldrich), or medium alone. After incubation for three days, 100 μl of supernatant in the culture medium was collected. Cell proliferation during the last 4 hours of 72 hours cultures was measured by modified MTT assay using Cell Counting Kit-8 (Sigma-Aldrich).

[9] = tested on: retinal microglia; test: Retinal microglia depletion by chow containing CSF1R inhibitor; type: in vivo; conditions: inhibitor-treated mice
Text: The images of whole mount retinas were taken by a confocal microscopy (SP5 or SP8; Leica, Buffalo Grove, Ill., USA) or an epifluorescent microscopy (Axio Observer Z1; Carl Zeiss, Bayern, Germany). For microglial cell number counting, microglial cell bodies were manually counted based on the z-stack images. For microglial density evaluation, maximum intensity z-stack images were created and the images were processed with the smooth, the make binary, and the watershed tools. The area of particles was then calculated using the analyze particles tool, setting the size range to 5-1000. Amira 5 software (FEI, Hillsboro, Oreg., USA) was used to make 3D-reconstruction images.
Microglia depletion was performed using Cx3cr1^CreER×B6-iDTR (TG) mice or chow containing a small molecule CSFR1 inhibitor (Plexxikon Inc, Berkely, Calif., USA). To generate TG mice, Cx3cr1^CreER mice, which express Cre-ER fusion protein from endogenous CX3CR1 promoter enhance elements, were crossed with B6-iDTR mice, which contain a flox-STOP-flox diphtheria toxin receptor (DTR) in the ROSA26 locus. In this TG mice system, the Cre recombinase activation under the control of the Cx3cr1 promoter can be induced by tamoxifen, which leads to the surface expression of DTR on CX3CR1-expressing cells. […]

[10] = Lymph node and spleen weight in EAU; type: in vivo, C57BL/6 mice; conditions: day 21
[11] = tested on: EAU; test: Adoptive transfer EAU; type: in vivo, mice
Experimental: Adoptive transfer EAU was induced as previously described with brief modification. Briefly, donor mice were immunized as described above and the spleens and draining lymph nodes (LNs) were collected on day 14 post-immunization. Lymphocytes from spleens and draining LNs were culture in the presence of 10 μg/ml IRBP-p and 10 ng/ml IL-23 (R&D systems, Minneapolis, Minn.) for 72 hours in RPMI 1640 supplemented with 10% FBS (Gibco), 2 mM glutamine (Gibco), and 100 U/ml penicillin and 100 μg/ml streptomycin. The non-adherent cells in the entire suspension were transferred to new dishes on day one and two of culture. After 3 days, the activated lymphocytes were purified by gradient centrifugation on Histopaque 1083 and counted. The cells were injected i.p. in 0.2 ml of PBS into […] (5×10^7 cells/mouse). Fundus were observed using Micron IV (Phoenix, Pleasanton, Calif.) and clinical score was graded on a scale between 0-4 in half-point increments as described previously. For histological assessment, enucleated eyes were fixed in a buffer of 70% methanol and 30% acetic acid. The fixed tissues were embedded in paraffin and processed. Sections of 5 μm were cut and stained with H&E. The severity of EAU in each eye was scored on a scale between 0-4 in half-point increments, according to a semiquantitative system described previously.

[12] = tested on: EAU; test: Active immunization EAU, clinical and histopathological score; type: in vivo, C57BL/6 mice
[13] = tested on: VCAM-1; test: Western blot of retinal VCAM-1; type: in vivo, mice; conditions: EAU day 14
Experimental: as §1

Q: With CC/C(=C(\c1ccccc1)c1ccc(OCCN(C)C)cc1)c1ccccc1 [tamoxifen] as the compound, how does the “clinical EAU score” value [1] read?
A: significantly suppressed

Q: And the “clinical EAU score” value ([1]; listed as Tamoxifen)?
A: suppresses EAU

Q: What about the “EAU severity (clinical EAU score)” value ([1]; tamoxifen topical via eye drops) of the same compound?
A: did not significantly affect

Q: Which “effect on circulating systemic immune cells” value [2] does the source give for COc1ncc(F)cc1CNc1ccc(Cc2c[nH]c3ncc(C)cc23)c(F)n1 [a small molecule CSFR1 inhibitor] here?
A: minimal effect

Q: And the “levels of adherent cells vs naïve mice” value [3]?
A: similar

Q: And the “number of adherent cells vs control EAU mice” value [3]?
A: significantly fewer

Q: What about the “delayed hypersensitivity (DH) response, ear swelling” value [4] of the same compound?
A: did not affect

Q: What about the “behavioral or health problems” value [5] of the same compound?
A: No obvious behavioral or health problems

Q: And the “retinal ICAM-1 protein expression vs naïve retina” value [6]?
A: significantly higher

Q: What about the “frequency of CD3+CD4+ T cells positive for IFN-γ+ or IL-17+” value ([7]; LNs and spleens, day 14) of the same compound?
A: does not suppress; also recorded: did not significantly change

Q: What about the “frequency of regulatory T cells (CD4+CD25+Foxp3+)” value ([7]; LNs and spleens, day 14) of the same compound?
A: did not increase

Q: And the “CD11c+CD11b+ cells” value ([7]; both LNs and splenic cells, day 14 of EAU, vs control-fed)?
A: suppresses; also recorded: decreased

Q: And the lymphocyte proliferation [8]?
A: did not affect

Q: And the “degree of microglia depletion” value [9]?
A: 100%

Q: What about the “lymph node (LN) weight” value [10] of the same compound?
A: does not change; also recorded: neither parameter was affected

Q: What about the spleen weight [10] of the same compound?
A: does not change; also recorded: neither parameter was affected

Q: And the “severity of EAU in recipients (uveitogenicity of donor lymphocytes)” value ([11]; inhibitor given to donor mice 7 days prior to EAU induction, recipients on regular diet)?
A: did not affect the severity of EAU; also recorded: does not significantly suppress

Q: What about the “EAU response (clinical and histopathological score)” value ([11]; inhibitor given to recipient mice 7 days prior to cell transfer) of the same compound?
A: suppressed; also recorded: suppresses EAU

Q: What about the “clinical EAU score (development of EAU)” value ([12]; diet 1200 ppm started day -7, through day 21, p<0.001) of the same compound?
A: suppresses EAU; also recorded: completely suppressed

Q: What about the “clinical EAU score” value ([12]; diet started day 0, until 28 days after EAU induction) of the same compound?
A: effectively suppressed

Q: And the “clinical EAU score” value ([12]; diet started day 7)?
A: partially suppressed

Q: What about the “severity of EAU (clinical score)” value ([12]; diet started day 14) of the same compound?
A: comparable to that of control mice

Q: And the “animals developing EAU” value ([12]; diet started day -7, by day 28, mild EAU, n=7)?
A: Only one animal

Q: And the histological score ([12]; diet started day -7, day 21, p<0.01)?
A: suppressed EAU induction

Q: And the “retinal VCAM-1 expression” value [13]?
A: unaffected
